# What was measured:
# [1] = Thermogravimetric (TG) analysis, weight loss due to decomposition; format: physicochemical; conditions: heated at 10° C./min from 30 to 500° C., under nitrogen (80 mL/min)
# Experimental: Thermogravimetric analyses were recorded in a Mettler Toledo SDTA851e. Samples of 3-4 mg were weighted into 40 μL aluminium crucibles with a pinhole lid, and heated at 10° C./min from 30 to 500° C., under nitrogen (80 mL/min).
# [2] = cited from earlier work
compound,measurement,setting,value
"CC(C)Cc1ccc([C@H](C)C(=O)O)cc1.COc1cccc([C@]2(O)CCCC[C@H]2CN(C)C)c1 [(−)-tramadol-(S)-ibuprofen salt, Phase 1]",TG analysis: weight loss beginning due to decomposition (temperature),[1],140 °C
"CC(C)Cc1ccc([C@H](C)C(=O)O)cc1.COc1cccc([C@]2(O)CCCC[C@H]2CN(C)C)c1 [(−)-tramadol-(S)-ibuprofen salt, Phase 2, (−)-tramadol-(S)-ibuprofen Salt, Phase 2]",TG analysis: weight loss beginning due to decomposition (temperature),[1],130 °C
"CC(C)Cc1ccc(C(C)C(=O)O)cc1 (stereo not shown) [ibuprofen, 2-[4-(2-methylpropyl)phenyl]propanoic acid]",amount of ibuprofen that dissolves in 1 ml of water,[2],Less than 1 mg
(+)-tramadol-(S)-ibuprofen salt,TG analysis: weight loss beginning due to decomposition (temperature),[1],130 °C

# From US20110178174A1, “SALTS OF TRAMADOL AND IBUPROFEN AND THEIR CRYSTAL FORM IN THE TREATMENT OF PAIN” (LABORATORIOS DEL DR. ESTEVE, S.A., priority 2008, published 2011)
